molecular target: ATR kinase (full-length ATR) (Homo sapiens (Human), UniProt Q13535); experiment: ATR inhibition assay (radioactive-phosphate incorporation); assay type: biochemical; details: not given
In short: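 Ki(app) was fitted by non-linear regression to background-corrected initial rates. Full-length ATR (5 nM) phosphorylated 800 μM peptide using 10 μM [γ-33P]ATP at 25° C in Tris/HCl pH 7.5 buffer with MgCl2, DTT and 7% DMSO. After 10-minute compound pre-incubation and 24-hour reaction, phosphocellulose filters were scintillation counted.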

Chain of ATR kinase (full-length ATR) (Q13535 whole entry): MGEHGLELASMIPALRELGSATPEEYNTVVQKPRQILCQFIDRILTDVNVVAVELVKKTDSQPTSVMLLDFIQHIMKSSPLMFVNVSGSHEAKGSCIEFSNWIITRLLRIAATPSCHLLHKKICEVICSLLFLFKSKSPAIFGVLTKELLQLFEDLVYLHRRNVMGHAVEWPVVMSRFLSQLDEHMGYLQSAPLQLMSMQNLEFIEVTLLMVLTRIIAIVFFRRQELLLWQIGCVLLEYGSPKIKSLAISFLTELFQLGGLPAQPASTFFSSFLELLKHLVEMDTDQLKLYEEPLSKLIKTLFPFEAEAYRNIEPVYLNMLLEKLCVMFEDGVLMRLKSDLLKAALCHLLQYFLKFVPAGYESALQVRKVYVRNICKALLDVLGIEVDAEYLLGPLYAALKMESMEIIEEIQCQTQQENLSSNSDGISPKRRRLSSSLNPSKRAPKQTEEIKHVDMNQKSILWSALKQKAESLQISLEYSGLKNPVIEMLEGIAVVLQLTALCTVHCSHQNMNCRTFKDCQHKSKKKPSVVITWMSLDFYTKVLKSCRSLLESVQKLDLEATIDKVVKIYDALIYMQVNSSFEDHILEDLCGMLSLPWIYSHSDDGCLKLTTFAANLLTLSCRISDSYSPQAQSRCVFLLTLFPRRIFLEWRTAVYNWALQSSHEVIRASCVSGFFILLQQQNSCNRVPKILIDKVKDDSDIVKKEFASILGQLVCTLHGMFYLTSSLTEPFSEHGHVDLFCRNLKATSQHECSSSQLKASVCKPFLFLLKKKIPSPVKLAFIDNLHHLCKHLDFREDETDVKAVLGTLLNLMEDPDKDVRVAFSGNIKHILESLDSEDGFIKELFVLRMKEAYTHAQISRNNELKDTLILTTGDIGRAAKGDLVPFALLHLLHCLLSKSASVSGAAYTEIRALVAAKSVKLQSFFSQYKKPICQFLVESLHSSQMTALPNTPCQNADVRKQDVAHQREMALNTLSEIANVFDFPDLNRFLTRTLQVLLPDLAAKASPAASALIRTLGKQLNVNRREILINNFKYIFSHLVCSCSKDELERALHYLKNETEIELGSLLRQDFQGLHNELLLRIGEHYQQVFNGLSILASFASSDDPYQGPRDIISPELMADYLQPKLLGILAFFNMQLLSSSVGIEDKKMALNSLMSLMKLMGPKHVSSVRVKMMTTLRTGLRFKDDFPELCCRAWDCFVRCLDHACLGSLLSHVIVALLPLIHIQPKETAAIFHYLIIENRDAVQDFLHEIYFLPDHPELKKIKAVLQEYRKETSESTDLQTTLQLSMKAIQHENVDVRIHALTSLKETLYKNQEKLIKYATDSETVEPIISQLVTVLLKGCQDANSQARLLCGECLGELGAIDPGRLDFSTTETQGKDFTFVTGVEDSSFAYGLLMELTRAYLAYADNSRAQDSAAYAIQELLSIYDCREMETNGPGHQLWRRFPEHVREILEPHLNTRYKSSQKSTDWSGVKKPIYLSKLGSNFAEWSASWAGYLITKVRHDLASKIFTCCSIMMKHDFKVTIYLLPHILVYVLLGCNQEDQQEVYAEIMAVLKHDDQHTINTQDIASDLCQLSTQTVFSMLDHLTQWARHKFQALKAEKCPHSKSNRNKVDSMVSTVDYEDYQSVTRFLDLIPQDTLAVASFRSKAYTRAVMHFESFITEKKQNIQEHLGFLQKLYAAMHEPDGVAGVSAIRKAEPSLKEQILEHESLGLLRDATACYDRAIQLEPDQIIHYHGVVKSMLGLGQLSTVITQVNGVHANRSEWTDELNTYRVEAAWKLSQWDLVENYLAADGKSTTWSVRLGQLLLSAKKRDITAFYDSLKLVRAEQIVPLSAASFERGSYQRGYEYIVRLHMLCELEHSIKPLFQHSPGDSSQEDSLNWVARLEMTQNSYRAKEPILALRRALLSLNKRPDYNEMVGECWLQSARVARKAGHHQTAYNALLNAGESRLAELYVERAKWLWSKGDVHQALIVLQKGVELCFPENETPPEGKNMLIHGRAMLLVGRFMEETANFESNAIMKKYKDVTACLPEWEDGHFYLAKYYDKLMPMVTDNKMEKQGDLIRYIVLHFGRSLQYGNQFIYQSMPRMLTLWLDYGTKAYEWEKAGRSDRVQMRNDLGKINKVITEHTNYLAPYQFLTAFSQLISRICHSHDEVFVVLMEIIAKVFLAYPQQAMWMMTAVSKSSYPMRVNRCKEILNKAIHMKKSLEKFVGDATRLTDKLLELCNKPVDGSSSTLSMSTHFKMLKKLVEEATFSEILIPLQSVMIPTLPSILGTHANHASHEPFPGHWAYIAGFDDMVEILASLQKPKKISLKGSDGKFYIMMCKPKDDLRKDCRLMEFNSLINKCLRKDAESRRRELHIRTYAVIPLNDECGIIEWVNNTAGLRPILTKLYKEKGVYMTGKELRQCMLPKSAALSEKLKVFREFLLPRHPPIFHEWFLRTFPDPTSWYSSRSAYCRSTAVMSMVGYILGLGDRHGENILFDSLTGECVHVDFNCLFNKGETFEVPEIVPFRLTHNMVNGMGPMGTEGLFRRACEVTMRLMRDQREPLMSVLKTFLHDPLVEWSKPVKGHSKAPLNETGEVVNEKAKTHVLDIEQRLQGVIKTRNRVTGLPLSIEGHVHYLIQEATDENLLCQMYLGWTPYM

Ki [nM]	SMILES
1000 to 5000	CN1CCN(C(=O)C2CCCN(c3c(F)cncc3NC(=O)c3c(N)nn4cc(F)cnc34)C2)CC1 (centres unmarked) [I-N-289, 2-amino-6-fluoro-N-(5-fluoro-4-(3-(4-methylpiperazine-1-carbonyl)piperidin-1-yl)pyridin-3-yl)pyrazolo[1,5-a]pyrimidine-3-carboxamide]

same assay, conditions: Ki(app), 5 nM full-length ATR, 10 μM ATP, 25° C.

Ki [nM]	SMILES
10 to 1000	CN1CC2CN(c3c(Cl)cncc3NC(=O)c3c(N)nn4cc(F)cnc34)CC2C1 (centres unmarked) [I-N-286, 2-amino-N-(5-chloro-4-(5-methylhexahydropyrrolo[3,4-c]pyrrol-2(1H)-yl)pyridin-3-yl)-6-fluoropyrazolo[1,5-a]pyrimidine-3-carboxamide]
10 to 1000	CS(=O)(=O)C1CCN(c2c(Cl)cncc2NC(=O)c2c(N)nn3cc(F)cnc23)C1 (centres unmarked) [I-N-287, 2-amino-N-(5-chloro-4-(3-(methylsulfonyl)pyrrolidin-1-yl)pyridin-3-yl)-6-fluoropyrazolo[1,5-a]pyrimidine-3-carboxamide]
10 to 1000	Nc1nn2cc(F)cnc2c1C(=O)Nc1cncc(F)c1N1CCC(n2ccnc2)CC1 [I-N-288, N-(4-(4-(1H-imidazol-1-yl)piperidin-1-yl)-5-fluoropyridin-3-yl)-2-amino-6-fluoropyrazolo[1,5-a]pyrimidine-3-carboxamide]
10 to 1000	CN(C)C(=O)C1CCCN(c2ccncc2NC(=O)c2c(N)nn3cc(F)cnc23)C1 (centres unmarked) [I-N-290, 2-amino-N-(4-(3-(dimethylcarbamoyl)piperidin-1-yl)pyridin-3-yl)-6-fluoropyrazolo[1,5-a]pyrimidine-3-carboxamide]
10 to 1000	CN1CC[C@H](Oc2ccncc2NC(=O)c2c(N)nn3cc(F)cnc23)C1 [I-O-1, (S)-2-amino-6-fluoro-N-(4-((1-methylpyrrolidin-3-yl)oxy)pyridin-3-yl)pyrazolo[1,5-a]pyrimidine-3-carboxamide]
10 to 1000	CN(C)Cc1ccc(Oc2ccncc2NC(=O)c2c(N)nn3cc(F)cnc23)cn1 [I-O-3, 2-amino-N-(4-((6-((dimethylamino)methyl)pyridin-3-yl)oxy)pyridin-3-yl)-6-fluoropyrazolo[1,5-a]pyrimidine-3-carboxamide]
10 to 1000	COc1ccncc1NC(=O)c1c(N)nn2cc(F)cnc12 [I-O-4, 2-amino-6-fluoro-N-(4-methoxypyridin-3-yl)pyrazolo[1,5-a]pyrimidine-3-carboxamide]
10 to 1000	Nc1nn2cc(F)cnc2c1C(=O)Nc1cnccc1Oc1cccnc1 [I-O-7, 2-amino-6-fluoro-N-(4-(pyridin-3-yloxy)pyridin-3-yl)pyrazolo[1,5-a]pyrimidine-3-carboxamide]
10 to 1000	Nc1nn2cc(F)cnc2c1C(=O)Nc1cnccc1OC1CCC(C(=O)O)CC1 (centres unmarked) [I-O-8, 4-((3-(2-amino-6-fluoropyrazolo[1,5-a]pyrimidine-3-carboxamido)pyridin-4-yl)oxy)cyclohexanecarboxylic acid]
10 to 1000	Nc1nn2cc(F)cnc2c1C(=O)Nc1cnccc1O[C@H]1CCCN(C2COC2)C1 [I-O-9, (S)-2-amino-6-fluoro-N-(4-((1-(oxetan-3-yl)piperidin-3-yl)oxy)pyridin-3-yl)pyrazolo[1,5-a]pyrimidine-3-carboxamide]
10 to 1000	Nc1nn2cc(F)cnc2c1C(=O)Nc1cnccc1OC1CCN(C2COC2)CC1 [I-O-11, 2-amino-6-fluoro-N-(4-((1-(oxetan-3-yl)piperidin-4-yl)oxy)pyridin-3-yl)pyrazolo[1,5-a]pyrimidine-3-carboxamide]

SMILES	Ki [nM]
Nc1nn2cc(F)cnc2c1C(=O)Nc1cnccc1O[C@H]1CN2CCC1CC2 [I-O-5, (R)-2-amino-6-fluoro-N-(4-(quinuclidin-3-yloxy)pyridin-3-yl)pyrazolo[1,5-a]pyrimidine-3-carboxamide]	10 to 1000
Nc1nn2cc(F)cnc2c1C(=O)Nc1cnccc1O[C@@H]1CN2CCC1CC2 [I-O-10, (S)-2-amino-6-fluoro-N-(4-(quinuclidin-3-yloxy)pyridin-3-yl)pyrazolo[1,5-a]pyrimidine-3-carboxamide]	10 to 1000

From patent publication US10392391B2 (Vertex Pharmaceuticals Incorporated, priority 2012, dated 2019)
